Measured values reported in patent US10463688B2, “Nylon-3 polymers active against Clostridium difficile” (priority 2015, dated 2019).
Values after ≈ are worked out from the molar mass of the structure shown.

How the values were obtained:
[1] = test system: C. difficile spores (R20291 strain); test: Viability of spores recovered from OIC assays (spore outplating), strain R20291; conditions: for R20291 Mean Spore Viability: CFU post-assay/initial CFU
[2] = test system: C. difficile spores (R20291 strain); conditions: MH broth with taurocholate, 24 h at 37° C.
[3] = test system: C. difficile spores (630Δerm strain); conditions: 630Δerm spores; MH broth with taurocholate, 24 h at 37° C.
[4] = test system: C. difficile spores (630Δerm strain); test: Viability of spores recovered from OIC assays (spore outplating), strain 630Δerm; format: cell-based, Clostridium difficile; conditions: CFU post-assay/initial CFU
Method: Experiments were conducted to determine whether any spores fail to germinate under the conditions of the OIC measurement but remain viable for subsequent germination and outgrowth. Spores were incubated for 24 h in the presence of germinant (taurocholate) and one of the polymers or other agents at multiple concentrations above the OIC. These solutions were then diluted 10 to 100-fold into sterile PBS, and further diluted upon plating onto BHIS agar medium containing germinant to achieve concentrations below the OIC of the relevant antimicrobial agent. Spore survival was calculated as the percentage of colony-forming units retrieved on outgrowth plates relative to the initial spore inoculum (100%).
Samples were diluted and plated onto BHIS medium containing 0.1% taurocholate and enumerated following incubation for at least 24 h at 37° C. Spore survival was calculated as the percentage of CFU post-assay/initial CFU.

[5] = test system: human red blood cells (hRBCs)
[6] = test system: C. difficile spores (R20291 strain); test: microbe, parasite or virus in culture; conditions: Clostridioides difficile, 24 h, read-out: OIC, minimum inhibition concentration for spore outgrowth
[7] = test system: C. difficile spores (630Δerm strain); test: microbe, parasite or virus in culture; conditions: Clostridioides difficile, 24 h, read-out: OIC, minimum inhibition concentration for spore outgrowth
[8] = Clostridioides difficile, read-out: R20291 Mean Spore Viability

| SMILES | R20291 Mean Spore Viability ([1]; concentration 10 μg/ml) | R20291 Mean Spore Viability ([1]; concentration 20 μg/ml) | R20291 Mean Spore Viability ([1]; concentration 40 μg/ml) | R20291 Mean Spore Viability ([1]; concentration 80 μg/ml) | OIC, minimum inhibition concentration for spore outgrowth [2] | OIC, minimum inhibition concentration for spore outgrowth [3] | 630ΔErm Mean Spore Viability ([4]; concentration 20 μg/ml) | 630ΔErm Mean Spore Viability ([4]; concentration 40 μg/ml) | 630ΔErm Mean Spore Viability ([4]; concentration 80 μg/ml) | hemolytic activity (in words) [5] | viability at 0.5 µg/mL [1, 8] | viability at 1 µg/mL [1, 8] | viability at 2 µg/mL [1, 8] | viability at 4 µg/mL [1, 8] | viability at 8 µg/mL [1, 8] | MIC [6] | MIC [7] |
| --- | --- | --- | --- | --- | --- | --- | --- | --- | --- | --- | --- | --- | --- | --- | --- | --- | --- |
| CC[C@H](C)[C@H](NC(=O)[C@H](CCCCN)NC(=O)[C@H](CCC(=O)O)NC(=O)[C@H](CCCCN)NC(=O)[C@H](CO)NC(=O)[C@H](CCCCN)NC(=O)[C@H](CCCNC(=N)N)NC(=O)[C@H](Cc1ccccc1)NC(=O)[C@H](Cc1ccccc1)NC(=O)[C@H](CC(=O)O)NC(=O)CNC(=O)[C@H](CC(C)C)NC(=O)[C@@H](N)CC(C)C)C(=O)NCC(=O)N[C@@H](CCCCN)C(=O)N[C@@H](CCC(=O)O)C(=O)N[C@@H](Cc1ccccc1)C(=O)N[C@@H](CCCCN)C(=O)N[C@@H](CCCNC(=N)N)C(=O)N[C@H](C(=O)N[C@H](C(=O)N[C@@H](CCC(N)=O)C(=O)N[C@@H](CCCNC(=N)N)C(=O)N[C@H](C(=O)N[C@@H](CCCCN)C(=O)N[C@@H](CC(=O)O)C(=O)N[C@@H](Cc1ccccc1)C(=O)N[C@@H](CC(C)C)C(=O)N[C@@H](CCCNC(=N)N)C(=O)N[C@@H](CC(N)=O)C(=O)N[C@@H](CC(C)C)C(=O)N[C@H](C(=O)N1CCC[C@H]1C(=O)N[C@@H](CCCNC(=N)N)C(=O)N[C@H](C(=O)N[C@@H](CCC(=O)O)C(=O)N[C@@H](CO)C(=O)O)[C@@H](C)O)C(C)C)[C@@H](C)CC)C(C)C)[C@@H](C)CC [LL-37] | 0.4% (±0.7%) | 1.2% (±0.7%) | 3.6% (±1.8%) | 5.8% (±2.9%) | 5 µg/mL | 10 µg/mL | 5.5% (±7.4%) | 4.0% (±4.0%) | 7.8% (±3.9%) | significant hemolytic activity |  |  |  |  |  |  |  |
| CN[C@H](CC(C)C)C(=O)N[C@H]1C(=O)N[C@@H](CC(N)=O)C(=O)N[C@H]2C(=O)N[C@H]3C(=O)N[C@H](C(=O)N[C@H](C(=O)O)c4cc(O)cc(O)c4-c4cc3ccc4O)[C@H](O)c3ccc(c(Cl)c3)Oc3cc2cc(c3O[C@@H]2O[C@H](CO)[C@@H](O)[C@H](O)[C@H]2O[C@H]2C[C@](C)(N)[C@H](O)[C@H](C)O2)Oc2ccc(cc2Cl)[C@H]1O [vancomycin] |  |  |  |  |  |  |  |  |  |  | 21.1% | 7.7% | 3.4% | 1.3% | 0.9% | 0.25 µg/mL (≈ 0.173 µM) | > 32 µg/mL |
